Measured values taken from patent publication US6426068B1, “Therapeutic uses of heterologous superoxide dismutase (HSD), and method for selecting said HSD” (Fractales Biotech, priority 1998, dated 2002).

B1: Mn—SOD of E. coli: manganese SOD of E. coli (protein, UniProt P00448 2-206, looked up)
Superoxide dismutase [Mn]: SYTLPSLPYAYDALEPHFDKQTMEIHHTKHHQTYVNNANAALESLPEFANLPVEELITKLDQLPADKKTVLRNNAGGHANHSLFWKGLKKGTTLQGDLKAAIERDFGSVDNFKAEFEKAAASRFGSGWAWLVLKGDKLAVVSTANQDSPLMGEAISGASGFPIMGLDVWEHAYYLKFQNRRPDYIKEFWNVVNWDEAAARFAAKK
B2: yeast Cu—SOD: yeast Cu—SOD (protein, UniProt P00445 2-154, looked up)
Superoxide dismutase [Cu-Zn]: VQAVAVLKGDAGVSGVVKFEQASESEPTTVSYEIAGNSPNAERGFHIHEFGDATNGCVSAGPHFNPFKKTHGAPTDEVRHVGDMGNVKTDENGVAKGSFKDSLIKLIGPTSVVGRSVVIHAGQDDLGKGDTEESLKTGNAGPRPACGVIGLTN

Legend:
human macrophages [1] = test: Apoptosis of human macrophages with β-amyloid or MPTP; assay type: cell-based; details: 10 μg/ml, 48 hours, FIGS. 12 and 13
human macrophages [2] = test: TNF-α production by human macrophages with β-amyloid or MPTP; details: 10 μg/ml, 48 hours, FIGS. 12 and 13
Experimental: The CLCs are isolated from 23 healthy individuals, under the same conditions as those set out above. The adherent cell populations are obtained by incubating the CLCs (1×10^7 cells/ml) either in Petri dishes (Nunc) or in 6-well culture plates (Nunc) for 30 min at 37° C. in an RPMI 1640 medium supplemented with foetal calf serum at 10% (v/v) . The monocytes are then recovered by scraping the plates after adding a cold solution of PBS containing 1 mM EDTA. Cell preparations which comprise more than 85% of viable macrophages are estimated by Trypan blue exclusion and staining with a nonspecific esterase.
The macrophages are cultured at a final concentration of 2×10^6 cells/ml in 12- or 24-well plastic culture plates (Nunc) and in an Iscove medium supplemented with 100 U/ml of penicillin, 100 μg/ml of streptomycin and 5% of foetal calf serum.
The cells are incubated for 48 hours at 37° C. in a humid atmosphere (100%) containing 95% air and 5% CO2, in the presence of absence of 10 μg/ml of β-amyloid or MPTP.
The cell supernatants are recovered for measuring the TNF and the nitrites, while apoptosis is evaluated directly on the cells.

[3] = test system: glutathione peroxidase (GPx), Mn—SOD, inducible NO synthase (iNOs); test: Immuno-redox activity of HSD1/anti-HSD1 immune complexes in U937 and U1 cells; details: noninfected U937 and U1 cells; HSD1 10 μg/ml (30 U/ml), anti-HSD1 antibodies 10 μg/ml; FIG. 16
Experimental: U937 cells which are chronically infected with HIV-1 (U1 cells), and which have a low p24 production level (<250 pg/10^5 cells/ml in a 3-day supernatant) are cultured in an RPMI medium supplemented with L-glutamine, penicillin, streptomycin and foetal calf serum at 10% (Gibco products). They are used for the production of p24, and to evaluate apoptosis.

Mn—SOD [4] = test: Endogenous SOD (dismutase) activity of U937 cells after exogenous SOD; assay type: cell-based, human; details: SOD 30 U/ml, FIG. 2
Experimental: U937 cells, untreated or treated with HIV-Tat protein, in the presence or absence of the abovementioned SODs, are lysed in a detergent buffer comprising: 10 mM Tris-HCl pH 7.4, 0.1% of SDS, 1% of Nonidet P-40, 10 μg/ml of leupeptin, 100 μg/ml of PMSF and 2 μg/ml of aprotinin, by heating at 85° C. for 5 min. The lysate is then briefly sonicated (3×30 sec).
The total superoxide dismutase activity is measured on the sonicated lysates obtained as described above by its capacity to inhibit the reduction of ferrocytochrome c by the superoxide radicals produced by the xanthin oxidase/xanthine system (McCord. J. M., 1969, J. Biol. Chem. 244, 6049). One unit of superoxide dismutase is defined as the amount which inhibits 50% of the reduction of cytochrome c at room temperature and at pH 7.8.

[5] = test system: glutathione peroxidase (Gpx); test: Glutathione peroxidase transcription in U937 cells (RT-PCR); details: FIG. 3
Experimental: The human promonocytic leukaemia cell line U937 is cultured at a final concentration of 2×10^5 cells/ml in an Iscove medium enriched with 100 U/ml of penicillin, 100 μg/ml of streptomycin and 5% of foetal calf serum, in the presence (activated) or absence (control) of 10 μg/ml of HIV-Tat protein.
After stimulation and treatment with various sources and concentrations of SOD, the U937 cells are harvested in a phosphate-buffered cold physiological saline, and counted. The total RNA is extracted by standard techniques (Chomczynski. P., 1987, Anal. Biochem. 162, 156), in 1 ml of TRIzol reagent (Life Technologies ≠15596), according to the manufacturer's instructions. After its extraction, the RNA is precipitated with isopropyl alcohol, and the pellets are washed in 70% ethanol and air dried. The dried pellets are resuspended in 50 μl of 0.5 mM EDTA, pH 8, and quantified by spectrophotometry. […]
The amplification program comprises: five cycles comprising 60 sec. at 92° C., 60 sec. at 58° C. and 60 sec. at 74° C., followed by 25 cycles comprising 30 sec. at 92° C., 60 sec. at 60° C. and 60 sec. at 74° C., and to finish, the temperature is kept at 74° C. for another 3 minutes. Positive PCR amplifications are then determined by an electrophoresis on 1.2% agarose gel in 0.5×TAE buffer. […]

Mn—SOD [6] = test: Endogenous SOD expression in U937 cells (SDS-PAGE / immunoblot); assay type: cell-based, human; details: HIV-Tat activated U937 cells (10 μg/ml Tat); SOD 30 U/ml, 24 hours; FIG. 1
[7] = test system: inflammation induced with adriamycin; test: Rat model of inflammation induced with adriamycin; assay type: in vivo
[8] = test system: inflammation induced with carrageenans; test: Rat model of inflammation induced with carrageenans; assay type: in vivo

Molecule | anti-inflammatory activity (rank order of SODs) [7] | anti-inflammatory activity (rank order of SODs) [8] | also measured
CN1CC=C(c2ccccc2)CC1 [MPTP] |  |  | death of macrophages by apoptosis (human macrophages [1]): induce their death by apoptosis; production of TNF-α by macrophages (human macrophages [2]): stimulate the production of TNF-α
HSD1: bovine SOD (heterologous), Sigma, St Louis, Mo. |  |  | expression of glutathione peroxidase (GPx), Mn—SOD and inducible NO synthase (iNOs) [3]: stimulate the expression; lifting of HIV-Tat protein-induced inhibition of Mn—SOD expression (endogenous SOD activity) (Mn—SOD [4]): can be lifted
HuSOD: recombinant human Cu/Zn SOD, homologous comparator |  |  | Gpx transcription [5]: does not enable it; lifting of HIV-Tat protein-induced inhibition of Mn—SOD expression (endogenous SOD activity) (Mn—SOD [4]): not lifted; Mn—SOD expression (Mn—SOD [6]): remains undetectable
bovine Cu—SOD: Cu/Zn—SOD of bovine origin | bovine Cu—SOD>Mn—SOD of E. coli | Mn—SOD of E. coli>bovine Cu—SOD>human Cu—SOD>yeast Cu—SOD>plant Cu—SOD | 
human Cu—SOD: human Cu—SOD |  | Mn—SOD of E. coli>bovine Cu—SOD>human Cu—SOD>yeast Cu—SOD>plant Cu—SOD | 
rat Cu—SOD: rat (homologous) Cu—SOD | totally inactive | significant pro-inflammatory activity | 
β-amyloid |  |  | death of macrophages by apoptosis (human macrophages [1]): induce their death by apoptosis; production of TNF-α by macrophages (human macrophages [2]): stimulate the production of TNF-α
B1 | bovine Cu—SOD>Mn—SOD of E. coli | Mn—SOD of E. coli>bovine Cu—SOD>human Cu—SOD>yeast Cu—SOD>plant Cu—SOD | 
B2 | generates a pro-inflammatory response | Mn—SOD of E. coli>bovine Cu—SOD>human Cu—SOD>yeast Cu—SOD>plant Cu—SOD | 
